In patent US20220354827A1 (priority 2019, published 2022):
Like-named read-outs stand apart in the source and are kept apart here.

Legend:
[1] = tested on: ATP-mediated elevation of cytosolic calcium in cells from Alzheimer's disease patients; conditions: for peak elevation of [Ca2+]c: ATP 30 μM, percentage of baseline
Protocol: The changes of cytosolic Ca^2+ concentration ([Ca^2+ ]c) of iPSCs after ATP exposure were measured using jellyfish photoprotein aequorin-based probe. 7.5-1.2×10^4 cells were plated on 12 mm coverslips in 24 well plate, grow to 50-60% confluence then transfected with the cyt-Aeq plasmid using Lipofectamine 3000 Transfection Reagent (Thermo Fisher Scientific) according to the manufacturer's instruction. The next day, the transfected cells were incubated with 5 μM coelenterazine for 1 h in modified Krebs-Ringer buffer (in mM: 140 NaCl, 2.8 KCl, 2 MgCl2, 10 Hepes, 11 glucoses, pH 7.4) supplemented with 1 mM CaCl2 and then were transferred to the perfusion chamber. All aequorin measurements were carried out in KRB, anesthetics were added to the same medium as specified. The experiments were performed in a custom-built aequorin recording system. For extracellular Ca^2+ free experiments, Ca^2+ free buffer was used (KRB without Ca^2+ with 5 mM EGTA). The experiments were terminated by lysing the cells with 100 μM digitonin in a hypotonic Ca^2+-rich solution (10 mM CaCl2 in H2O), thus discharging the remaining aequorin pool. The light signal was collected and calibrated into [Ca^2+ ]c values by an algorithm based on the Ca^2+ response curve of aequorin at physiological conditions of pH, [Mg^2+], and ionic strength, as previously described by Filadi R, et al., PNAS 2015; 201504880; Bonora M, et al., Nat Protoc 2013; 8:2105, each of which is incorporated by reference in its entirety.

iPSC from AD patients = conditions: compared with DMSO
Protocol: As described previously by Ren G, et al., Sci Rep 2017; 7:12378, which is incorporated by reference in its entirety, LysoTracker® Red DND-99 (Molecular Probe, Eugene, Oreg.) probe stock solution was diluted to a working concentration of 50 nM in HBSS+. IPSCs cells were plated on coverslips coated with Matrigel (BD Biosciences) in mTeSR™1 (Catalog #05850). After being washed three times with HBSS+, the cells were loaded with pre-warmed (37° C.) probe containing HBSS+ and incubated for 1 h at 37° C. Fresh medium was added to replace the labeling solution. The cells were observed by a fluorescent microscope fitted with the correct filter set for the probe used, to determine if the cells were sufficiently fluorescent. LysoTracker Red used an […].

[2] = 11 months of age
[3] = tested on: wild type (WT) and 5XFAD (TG) mice; conditions: all groups
[4] = all groups, 10 months of age
[5] = tested on: cortical neurons generated from SAD and FAD patient iPSCs; conditions: dantrolene for 3 days
[6] = intranasal 5 mg/kg, 3 times/wk, 4 months; vs vehicle
[7] = tested on: vacuolar-type H+-ATPase (V-ATPase) in lysosomes (LAMP-2) of iPSC; conditions: dantrolene 30 μM
[8] = tested on: induced pluripotent stem cells (iPSCs) from Alzheimer's disease (AD) patients; conditions: FAD cells; vs DMSO vehicle
Protocol: (§1) Human control (AG02261) and sporadic Alzheimer's disease (AG11414) iPSCs were obtained from John A. Kessler's lab. Familial Alzheimer's disease (GM24675) iPSCs were purchased from Coriell Institute. Each type of iPSC was generated from skin fibroblasts of one heathy human subject or one patient diagnosed of either SAD or FAD. The human pluripotent stem cells were maintained on Matrigel coated plates (BD Biosciences) in mTeSR™1 medium (Catalog #05850, Stem cell Technologies) and were cultured in a 5% CO2 humidified atmosphere at 37° C. The culture medium was changed every day.

[9] = tested on: cortical neurons generated from SAD and FAD patient iPSCs; conditions: FAD cells; dantrolene treatment
[10] = tested on: NMDA mediated elevation of cytosolic Ca2+ concentrations in iPSC from AD patients
[11] = tested on: glutamate mediated elevation of mitochondrial calcium concentration in iPSC-derived neurons; conditions: FAD neurons; glutamate 20 mM; dantrolene 20 μM pretreatment 1 hour
[12] = not given; remark: listed apart in the source
[13] = tested on: LC3II in iPSCs from AD patients
Protocol: Western blotting was performed according to the standard procedure. Total protein extracts from iPSCs cells were obtained by lysing the cells in ice-cold lysis buffer (50 mM Tris-HCl, 150 mM NaCl and 1% Triton X-100) in the presence of a cocktail of protease inhibitors, as described by Hollomon, M G, et al., BMC Cancer 2013; 13:500, which is incorporated by reference in its entirety. After centrifugation, the supernatant was collected, and the total protein was quantified using a bicinchoninic acid (BCA) protein assay kit (Thermo Scientific, Rockford, Ill.). Equal amounts of protein for each lane were loaded and separated on 15% sodium dodecyl sulfate-polyacrylamide gel electrophoresis (SDSPAGE).
After electrophoresis, proteins were transferred onto a polyvinylidene fluoride (PVDF) membrane. The membranes were blocked with 5% fat-free milk dissolved in PBS-T for 1 h at room temperature, and then stained with primary antibody at 4° C. overnight. After the wash with PBS-T, the membranes were incubated with secondary antibodies (HRP conjugated anti-rabbit and anti-mouse IgG) at 1:1,000 dilutions, and β-actin served as a loading control. Signals were detected with an enhanced chemiluminescence detection system (Millipore, Billerica, Mass.) and quantified by scanning densitometry.

[14] = tested on: amyloid plaques in hippocampus and cortex of 5XFAD mice; conditions: IN-DAN, SQ-DAN, ETG and LTG
5XFAD mice = conditions: for hippocampus-dependent memory (CFC) vs untreated 5XFAD controls / hippocampus-independent memory (FC-cued) vs controls: 6 months of age
[15] = intranasal 5 mg/kg, 3 times/wk, 3 weeks; vs vehicle
[16] = tested on: iPSCs derived immature neurons
[17] = mouse, in vivo
[18] = tested on: induced pluripotent stem cells (iPSCs) from Alzheimer's disease (AD) patients; conditions: 24 h; for increase of MTT (cell viability): dantrolene 30 μM
Protocol: as §1
The cell viability on different wells in 96-well plates was determined using the MTT (3-(4,5-dimethylthiazol-2-yl)-2,5-diphenyltetrazolium bromide, Sigma-Aldrich, St. Louis, Mo.) reduction assay at 24 h as previously described by Qiao H, et al., Anesthesiology 2017; 127:490; Ren G, et al., Sci Rep 2017; 7:12378, each of which is incorporated by reference in its entirety. After being washed with PBS, the samples were incubated with fresh culture medium containing MTT (0.5 mg/mL in the medium) at 37° C. for 4 h in the dark. The medium was then removed and formazan was solubilized with dimethyl sulfoxide (DMSO). The absorbance was measured at 540 nm with plate reader (Synergy™ H1 microplate reader, BioTek, Winooski, Vt.).

Nc1ncnc2c1ncn2[C@@H]1O[C@H](COP(=O)(O)OP(=O)(O)OP(=O)(O)O)[C@@H](O)[C@H]1O [ATP, adenosine triphosphate]
peak elevation of [Ca2+]c ([1]; FAD cells): 128.3%
peak elevation of [Ca2+]c ([1]; SAD cells): 140.4%
peak elevation of [Ca2+]c ([1]; control cells): 84.1%

O=C1CN(/N=C/c2ccc(-c3ccc([N+](=O)[O-])cc3)o2)C(O)=N1 [dantrolene]
lysotracker-positive acidic vesicles (iPSC from AD patients; FAD cells): significantly increased
lysotracker-positive acidic vesicles (iPSC from AD patients; SAD cells): significantly increased
hepatic pathology (H&E stained sections) ([2]; 5XFAD ETG mice): No gross differences
hepatic pathology (H&E stained sections) ([2]; WT ETG mice): No gross differences
number of times the animals crossed the platform ([3]; 10 months): no significant differences
percent time in the target quadrant (probe trial) vs controls ([3]; 10 months): no significant differences
escape latency in place trials vs controls ([3]; 10 months of age): no significant differences
olfaction (buried food test) ([4]; 5XFAD): No significant differences
olfaction (buried food test) ([4]; WT): No significant differences
mean number of dendrite intersections at around 150 μM from soma ([5]; FAD cells): significantly greater
mean number of dendrite intersections at around 150 μM from soma ([5]; SAD cells): significantly greater
motor function, time spent on the rotarod [6]: No significant differences
V-ATPase in lysosomes (LAMP-2) compared with controls ([7]; FAD cells): no longer significantly reduced
V-ATPase in lysosomes (LAMP-2) compared with controls ([7]; SAD cells): remained significantly lower
cell proliferation, percentage of BrdU-positive cells [8]: greater proliferation
PSD95 density [9]: significantly greater
synapsin-1 density [9]: significantly increased
NMDA-mediated elevation of [Ca2+]c and AUC [10]: ameliorated
glutamate-induced overall exposure (AUC) of mitochondrial calcium concentration [11]: abolished
glutamate-induced peak elevation of mitochondrial calcium concentration [11]: abolished
bodyweight growth curve (5XFAD mice, ETG groups): No significant differences
body weight (WT, 12 months of age): No significant difference
plasma alanine aminotransferase (ALT) activity vs control group ([12]; 5XFAD, 6-month intranasal treatment in LTG): significantly increased
plasma alanine aminotransferase (ALT) activity vs control group ([12]; 5XFAD, other treatment groups): No significant differences
plasma alanine aminotransferase (ALT) activity vs control group ([12]; WT, 6-month subcutaneous treatment in LTG): significantly increased
plasma alanine aminotransferase (ALT) activity vs control group ([12]; WT, other treatment group): No significant difference
increase of LC3II level ([13]; FAD iPSCs, P<0.001): 49.4%
increase of LC3II level ([13]; SAD iPSCs, P=0.3483): 47.3%
number of amyloid plaques per area (mm^2) in hippocampus and cortex [14]: No significant differences
percent area of the hippocampus and cortex occupied by plaques ([14]; vs control): No significant differences
hippocampus-dependent memory (CFC) vs untreated 5XFAD controls (5XFAD mice; IN-DAN, ETG): significantly greater memory
hippocampus-independent memory (FC-cued) vs controls (5XFAD mice; IN-DAN, ETG): significantly improved
hippocampus-dependent memory (CFC) vs 5XFAD controls (5XFAD mice; IN-DAN, ETG, 11 months of age): significantly greater
hippocampus-independent memory (FC-cued) vs 5XFAD CON (5XFAD mice; IN-DAN, ETG, 11 months of age): significantly better
hippocampus-independent memory (FC-cued) vs 5XFAD CON (5XFAD mice; IN-DAN, LTG, 11 months): No significant memory improvement
hippocampus-dependent memory (CFC) vs 5XFAD CON (5XFAD mice; IN-DAN, LTG, 11 months of age): significantly improved
hippocampus-dependent memory (CFC) vs untreated 5XFAD controls (5XFAD mice; SQ-DAN, ETG): significantly greater memory
hippocampus-independent memory (FC-cued) vs controls (5XFAD mice; SQ-DAN, ETG): significantly improved
hippocampus-independent memory (FC-cued) vs 5XFAD CON (5XFAD mice; SQ-DAN, ETG, 11 months of age): trended to improve memory but were not statistically different
hippocampus-independent memory (FC-cued) vs 5XFAD CON (5XFAD mice; SQ-DAN, LTG, 11 months): No significant memory improvement
hippocampus-dependent memory (CFC) vs 5XFAD CON (5XFAD mice; SQ-DAN, LTG, 11 months of age): trended to be better but was not statistically significant
olfaction, time to retrieve buried food [15]: No significant differences
glutamate-induced reduction of cytosolic ATP concentration ([16]; neurons derived from AD patients): significantly inhibited
motor function (rotarod) vs control group [17]: No significant differences
integrated cytosolic Ca2+ (AUC), ATP+Ca2++DAN vs ATP+Ca2+ ([1]; FAD cells, dantrolene 30 μM pretreatment, 1 mM extracellular Ca2+): significantly reduced
ATP-mediated peak or overall elevation of [Ca2+]c ([1]; absence of extracellular Ca2+ influx, SAD/FAD cells, not statistically significant): only trended to inhibit
integrated cytosolic Ca2+ (AUC), ATP+Ca2++DAN vs ATP+Ca2+ ([1]; control cells, dantrolene 30 μM pretreatment, 1 mM extracellular Ca2+): significantly reduced
peak cytosolic [Ca2+]c, ATP+Ca2++DAN ([1]; dantrolene 30 μM pretreatment, 1 mM extracellular Ca2+, between groups): no significant differences
increase of MTT (cell viability) ([18]; iPSC FAD): 67.6%
increase of MTT (cell viability) ([18]; iPSC SAD): 15.1%
cell viability (MTT) ([18]; iPSCs from healthy human subjects (CON), 30 μM): did not affect

bafilomycin
LC3II level on co-treatment with dantrolene ([13]; SAD and FAD iPSCs, vs dantrolene alone): further elevated

glutamate
cytosolic ATP production ([16]; glutamate 20-30 mM, 24 hours): dose dependently decreased
